Data from the supplement of paper PMC10307832.

How the values were obtained:
Test in all cases: relative viability (nuclei count vs DMSO), 5 days (fraction); higher = more cells survive
[1] = compound: COC1=CC=C(C=C1)CN2C=CC3=C2C=C(C=C3)C(=O)NO + CC(=O)c1c(C)c2cnc(Nc3ccc(N4CCNCC4)cn3)nc2n(C2CCCC2)c1=O [Palbociclib] (partner 0.5 µM)
How it was run: (§1)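 Dosing by pin tool came one day after lung cancer cell lines were seeded in 1536-well plates, using either one drug or a fixed anchor-drug dose plus five library-drug doses (not always all listed) in √10 steps. After 5 days, nuclei were counted on 4× images. Relative viability is treated-well nuclei count divided by vehicle-well nuclei count, and values are medians of duplicate plates.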

[2] = compound: COC1=CC=C(C=C1)CN2C=CC3=C2C=C(C=C3)C(=O)NO + CC1(C)CCC(c2ccc(Cl)cc2)=C(CN2CCN(c3ccc(C(=O)NS(=O)(=O)c4ccc(N[C@H](CCN5CCOCC5)CSc5ccccc5)c(S(=O)(=O)C(F)(F)F)c4)cc3)CC2)C1 [Navitoclax] (partner 0.5 µM)
How it was run: as §1

Veliparib + Crizotinib = compound: C[C@]1(c2nc3c(C(N)=O)cccc3[nH]2)CCCN1 [Veliparib] + C[C@@H](Oc1cc(-c2cnn(C3CCNCC3)c2)cnc1N)c1c(Cl)ccc(F)c1Cl [Crizotinib] (partner 1 µM)
How it was run: as §1

Veliparib + Linsitinib = compound: C[C@]1(c2nc3c(C(N)=O)cccc3[nH]2)CCCN1 [Veliparib] + C[C@]1(O)C[C@@H](c2nc(-c3ccc4ccc(-c5ccccc5)nc4c3)c3c(N)nccn32)C1 [Linsitinib] (partner 1 µM)
How it was run: as §1

Row | Cell Line | relative viability ([1]; first compound 0.08 µM) | relative viability ([1]; first compound 0.253 µM) | relative viability ([1]; first compound 0.8 µM) | relative viability ([1]; first compound 2.53 µM) | relative viability ([1]; first compound 8 µM) | relative viability ([2]; first compound 0.08 µM) | relative viability ([2]; first compound 0.253 µM) | relative viability ([2]; first compound 0.8 µM) | relative viability ([2]; first compound 2.53 µM) | relative viability ([2]; first compound 8 µM) | relative viability (Veliparib + Crizotinib; first compound 0.02 µM) | relative viability (Veliparib + Crizotinib; first compound 0.06325 µM) | relative viability (Veliparib + Crizotinib; first compound 0.2 µM) | relative viability (Veliparib + Crizotinib; first compound 0.6325 µM) | relative viability (Veliparib + Crizotinib; first compound 2 µM) | relative viability (Veliparib + Linsitinib; first compound 0.02 µM) | relative viability (Veliparib + Linsitinib; first compound 0.06325 µM) | relative viability (Veliparib + Linsitinib; first compound 0.2 µM) | relative viability (Veliparib + Linsitinib; first compound 0.6325 µM) | relative viability (Veliparib + Linsitinib; first compound 2 µM)
1 | NCI-H1651 | 0.476 | 0.519 | 0.525 | 0.51 | 0.531 | 0.926 | 1.14 | 1.07 | 0.987 | 0.92 | 0.926 | 0.853 | 0.805 | 0.799 | 0.83 | 0.854 | 1.01 | 0.984 | 0.82 | 0.805
2 | NCI-H1666 | 0.642 | 0.661 | 0.694 | 0.679 | 0.625 | 0.85 | 0.893 | 0.988 | 1.26 | 1.06 | 0.94 | 0.826 | 1.03 | 0.995 | 1.07 | 0.93 | 0.557 | 0.865 | 0.671 | 0.838
3 | NCI-H1734 |  | 0.367 | 0.387 | 0.341 | 0.34 |  | 0.899 | 0.947 | 0.805 | 0.882 | 0.701 | 0.641 | 0.728 | 0.623 | 0.682 | 0.925 | 0.85 | 0.917 | 0.805 | 0.928
